Assay results as given in publication PMC7287781 (Molecules, 2020).

How the values were obtained:
STAT3 = molecular target: T1, STAT3 (Homo sapiens, UniProt P40763); assay: fluorescence polarization competition with 5-carboxyfluorescein-GpYLPQTV-NH2; […], […], […] inhibition at […]; format: binding
T1 construct: STAT3 protein (ab43618, Abcam)

PDGFR-α = molecular target: T2, PDGFR-α (Homo sapiens, UniProt P16234); assay: ELISA tyrosine kinase activity assay, single concentration; format: biochemical; conditions: read-out: Inhibition Rate(%) / PDGFR-α
T2 construct: gene PDGFRA; purified tyrosine kinase protein

PDGFR-β = molecular target: T3, PDGFR-β (Homo sapiens, UniProt P09619); assay: as above; format: biochemical; conditions: read-out: Inhibition Rate(%) / PDGFR-β
T3 construct: gene PDGFRB; purified tyrosine kinase protein

Flt-1 = molecular target: T4, Flt-1 (Homo sapiens, UniProt P17948); assay: as above; format: biochemical; conditions: read-out: Inhibition Rate(%) / Flt-1
T4 construct: gene FLT1; purified tyrosine kinase protein
T4 sequence (P17948 27-1338): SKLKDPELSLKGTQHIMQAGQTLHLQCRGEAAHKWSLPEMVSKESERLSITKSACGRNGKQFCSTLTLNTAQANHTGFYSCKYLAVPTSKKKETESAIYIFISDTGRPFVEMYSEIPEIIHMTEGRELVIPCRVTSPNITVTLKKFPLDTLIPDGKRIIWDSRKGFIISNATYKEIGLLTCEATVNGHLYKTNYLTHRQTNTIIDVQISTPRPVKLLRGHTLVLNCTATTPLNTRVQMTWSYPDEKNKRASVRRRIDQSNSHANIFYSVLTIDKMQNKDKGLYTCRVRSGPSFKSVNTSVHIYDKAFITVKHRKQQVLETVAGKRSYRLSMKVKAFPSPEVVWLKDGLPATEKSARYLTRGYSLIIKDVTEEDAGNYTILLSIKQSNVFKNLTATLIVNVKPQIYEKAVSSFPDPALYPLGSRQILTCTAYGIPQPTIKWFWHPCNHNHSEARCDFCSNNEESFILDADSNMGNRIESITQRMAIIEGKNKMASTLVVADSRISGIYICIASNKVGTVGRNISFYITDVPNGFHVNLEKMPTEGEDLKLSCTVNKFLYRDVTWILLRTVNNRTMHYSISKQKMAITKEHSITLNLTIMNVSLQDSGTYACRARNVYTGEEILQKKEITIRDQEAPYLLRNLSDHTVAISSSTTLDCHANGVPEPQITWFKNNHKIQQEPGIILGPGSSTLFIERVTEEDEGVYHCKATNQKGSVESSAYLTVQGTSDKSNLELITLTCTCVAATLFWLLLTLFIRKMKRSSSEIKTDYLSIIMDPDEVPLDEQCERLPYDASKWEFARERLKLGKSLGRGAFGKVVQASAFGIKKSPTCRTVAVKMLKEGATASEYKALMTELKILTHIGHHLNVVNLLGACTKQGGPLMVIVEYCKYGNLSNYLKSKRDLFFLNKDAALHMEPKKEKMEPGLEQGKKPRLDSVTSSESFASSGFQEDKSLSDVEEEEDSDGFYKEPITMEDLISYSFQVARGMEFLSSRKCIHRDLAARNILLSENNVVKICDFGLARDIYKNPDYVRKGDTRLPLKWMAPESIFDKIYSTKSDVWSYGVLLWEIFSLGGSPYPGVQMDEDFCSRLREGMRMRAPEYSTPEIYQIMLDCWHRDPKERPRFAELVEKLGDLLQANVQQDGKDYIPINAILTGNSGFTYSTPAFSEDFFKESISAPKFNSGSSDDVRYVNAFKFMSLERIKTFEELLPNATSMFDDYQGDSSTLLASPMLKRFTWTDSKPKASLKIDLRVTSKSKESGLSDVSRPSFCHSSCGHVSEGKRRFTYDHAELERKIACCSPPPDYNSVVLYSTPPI

T3 sequence (P09619 33-1106): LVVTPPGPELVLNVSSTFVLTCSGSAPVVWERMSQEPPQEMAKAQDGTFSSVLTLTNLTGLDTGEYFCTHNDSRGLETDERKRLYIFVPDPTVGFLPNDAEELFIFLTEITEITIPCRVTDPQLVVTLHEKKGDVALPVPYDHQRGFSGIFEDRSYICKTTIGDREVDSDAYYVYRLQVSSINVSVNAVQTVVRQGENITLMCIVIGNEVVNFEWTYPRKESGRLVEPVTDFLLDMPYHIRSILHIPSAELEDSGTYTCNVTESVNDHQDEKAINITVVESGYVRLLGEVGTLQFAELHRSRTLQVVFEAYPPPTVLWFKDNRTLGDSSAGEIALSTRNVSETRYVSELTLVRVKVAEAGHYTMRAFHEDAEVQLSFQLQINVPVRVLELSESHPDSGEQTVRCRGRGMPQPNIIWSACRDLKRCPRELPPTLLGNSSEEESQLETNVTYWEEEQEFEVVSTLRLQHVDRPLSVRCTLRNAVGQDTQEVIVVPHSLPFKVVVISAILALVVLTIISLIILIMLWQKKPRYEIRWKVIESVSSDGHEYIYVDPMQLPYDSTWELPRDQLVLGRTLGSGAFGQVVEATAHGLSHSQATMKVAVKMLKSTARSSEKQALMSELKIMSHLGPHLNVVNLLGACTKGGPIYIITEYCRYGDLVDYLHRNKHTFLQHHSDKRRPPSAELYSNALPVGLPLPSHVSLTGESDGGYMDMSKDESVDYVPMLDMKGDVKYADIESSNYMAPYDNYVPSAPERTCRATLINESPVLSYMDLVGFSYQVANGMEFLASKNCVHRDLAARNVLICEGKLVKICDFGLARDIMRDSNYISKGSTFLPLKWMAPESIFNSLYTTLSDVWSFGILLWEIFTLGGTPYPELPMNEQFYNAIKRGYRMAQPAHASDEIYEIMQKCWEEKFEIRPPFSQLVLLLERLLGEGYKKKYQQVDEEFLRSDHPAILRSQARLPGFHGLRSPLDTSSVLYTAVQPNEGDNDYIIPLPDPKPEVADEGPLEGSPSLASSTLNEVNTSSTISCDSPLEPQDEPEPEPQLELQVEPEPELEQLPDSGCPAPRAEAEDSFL
T2 sequence (P16234 24-1089): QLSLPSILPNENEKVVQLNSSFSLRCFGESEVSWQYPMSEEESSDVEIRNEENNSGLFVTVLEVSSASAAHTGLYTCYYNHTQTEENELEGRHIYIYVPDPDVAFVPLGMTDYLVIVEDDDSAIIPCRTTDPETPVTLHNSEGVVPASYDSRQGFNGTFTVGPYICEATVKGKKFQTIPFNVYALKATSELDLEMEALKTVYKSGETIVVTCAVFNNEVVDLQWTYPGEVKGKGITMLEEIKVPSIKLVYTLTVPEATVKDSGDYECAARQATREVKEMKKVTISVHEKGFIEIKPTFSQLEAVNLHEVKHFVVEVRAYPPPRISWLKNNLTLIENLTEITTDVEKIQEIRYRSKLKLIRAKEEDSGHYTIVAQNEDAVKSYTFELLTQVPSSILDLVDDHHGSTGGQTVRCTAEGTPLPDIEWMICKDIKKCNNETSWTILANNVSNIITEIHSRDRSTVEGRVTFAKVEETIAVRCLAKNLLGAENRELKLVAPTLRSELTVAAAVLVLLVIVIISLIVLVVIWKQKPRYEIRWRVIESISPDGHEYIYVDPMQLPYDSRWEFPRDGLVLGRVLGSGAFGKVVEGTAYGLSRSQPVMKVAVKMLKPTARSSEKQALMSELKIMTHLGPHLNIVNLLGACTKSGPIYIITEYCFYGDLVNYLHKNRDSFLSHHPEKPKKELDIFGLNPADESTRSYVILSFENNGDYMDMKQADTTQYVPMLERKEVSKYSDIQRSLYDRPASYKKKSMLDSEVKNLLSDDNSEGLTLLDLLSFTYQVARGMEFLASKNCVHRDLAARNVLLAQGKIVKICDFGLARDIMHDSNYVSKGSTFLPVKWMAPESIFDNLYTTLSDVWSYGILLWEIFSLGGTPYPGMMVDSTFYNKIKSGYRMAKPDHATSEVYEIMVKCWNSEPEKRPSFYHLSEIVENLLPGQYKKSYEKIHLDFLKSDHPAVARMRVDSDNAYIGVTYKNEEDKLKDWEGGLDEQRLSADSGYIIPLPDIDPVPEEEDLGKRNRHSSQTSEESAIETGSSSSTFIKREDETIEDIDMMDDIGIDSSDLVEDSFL
T1 sequence (P40763 2-770): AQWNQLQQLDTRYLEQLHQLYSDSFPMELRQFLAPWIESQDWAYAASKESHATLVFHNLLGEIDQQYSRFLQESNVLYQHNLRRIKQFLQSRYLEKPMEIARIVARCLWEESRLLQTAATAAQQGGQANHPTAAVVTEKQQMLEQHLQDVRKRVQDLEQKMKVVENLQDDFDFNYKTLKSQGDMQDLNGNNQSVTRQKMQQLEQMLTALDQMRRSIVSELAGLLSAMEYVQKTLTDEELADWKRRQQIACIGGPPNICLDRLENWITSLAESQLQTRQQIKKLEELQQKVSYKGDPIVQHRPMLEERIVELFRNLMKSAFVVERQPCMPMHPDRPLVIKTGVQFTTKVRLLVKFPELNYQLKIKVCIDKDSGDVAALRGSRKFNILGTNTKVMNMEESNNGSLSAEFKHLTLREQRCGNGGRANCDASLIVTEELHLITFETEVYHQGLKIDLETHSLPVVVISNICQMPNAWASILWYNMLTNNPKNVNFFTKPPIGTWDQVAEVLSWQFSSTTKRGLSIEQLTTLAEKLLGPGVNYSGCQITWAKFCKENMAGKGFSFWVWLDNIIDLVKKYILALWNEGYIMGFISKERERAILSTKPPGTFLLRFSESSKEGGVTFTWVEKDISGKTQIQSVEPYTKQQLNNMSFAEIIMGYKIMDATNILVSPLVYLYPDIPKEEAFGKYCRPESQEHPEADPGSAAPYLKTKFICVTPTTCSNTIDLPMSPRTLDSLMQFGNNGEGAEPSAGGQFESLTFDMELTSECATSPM

Row | Structure (SMILES) | % inhibition at 2 μM (STAT3) | inhibition at 1 µM (PDGFR-α) | inhibition at 1 µM (PDGFR-β) | inhibition at 1 µM (Flt-1)
1 | C/C=C\C(=O)O[C@@H]1C[C@H]2O[C@@H]3C=C(C)C(=O)C[C@]3(C)[C@]1(C)[C@]21CO1 [TCN, trichothecin] | 53.9 | – | – | –
2 | CCN(CC)CCNC(=O)c1c(C)[nH]c(/C=C2\C(=O)Nc3ccc(F)cc32)c1C [Su11248] | – | 68.4% | 80.2% | 66.6%
